# How the values were obtained:
# [1] = target: T1, LRRK2 WT (Homo sapiens, UniProt Q5S007); assay: In vitro kinase assay: LRRK2-mediated MBP phosphorylation; type: biochemical; conditions: dose-response
# [2] = target: T2, LRRK2 G2019S (Homo sapiens, UniProt Q5S007, G2019S); assay: In vitro kinase assay: G2019S LRRK2-mediated MBP phosphorylation; type: biochemical; conditions: dose-response
# Procedure: (§1) Transfection was performed by using Fugene HD reagent (Roche Applied Science) according to the manufacturer's instruction. For purification of recombinant LRRK1 and LRRK2 proteins, ACTA Purifier (GE Healthcare) FPLC system was used.
# (§2) Resulting lysates were rotated at 4° C. for 30 min followed by centrifugation at 20,000×g for 15 min. The supernatants were injected into a GSTrap FF column pre-equilibrated with PBS at 0.5. mL/min flow after filtration using a 0.2 μm syringe filter (Corning). The bound proteins were eluted with buffer containing 10 mM GSH (Sigma), 150 mM NaCl, and 50 mM Tris-HCl (pH 8.0).
# (§3) The in vitro kinase assay was performed as previously described. […] Recombinant LRRK2 and MBP or CST-4E-BP1 were combined before the kinase reaction. LRRK2 autophosphorylation is LRRK2 itself phosphorylation and MBP or GST-4E-BP1 phosphorylation is induced by LRRK2. After the kinase reaction, combined LRRK2 and MBP or GST-4E-BP1 were loaded on SDSPAGE and phosphorylated LRRK2 and MBP or GST-4E-BP1 could be detected separately an a single gel. Recombinant proteins and inhibitors were incubated at 30° C. in kinase assay buffer containing 20 mM Hepes (pH 7.4), 5 mM EGTA, and 20 mM β-glycerol phosphate. 0.5 μg MBP (Upstate) or 0.5 μg GST-4B-BP1, 50 μM ATP (Sigma), 20 mM MgCl2, and 1 μCi [γ-32P] ATP (PerkinElmer) was added after 5 min. The reaction was performed at 30° C. to reduce non-specific 32P incorporation for 15 min and terminated by the addition of 5×Laemmili sample buffer. […] Gels were stained by coomassie brilliant blue after fixation with 10% acetic acid and 40% methanol and then exposed to a Phosphoimager. Data were analyzed by ImageQuant 6.0 software.
# (§4) To calculate the IC50 value, a dose-response curve was constructed and non-linear regression analysis using the equation for a sigmoid plot.
# [3] = test system: rat primary cortical neuronal cultures transfected with G2019S LRRK2; assay: LRRK2-induced neuronal toxicity in primary cortical neuronal cultures (neurite shortening, TUNEL); type: cell-based; conditions: 0.5 μM
# Procedure: Representative photomicrographs of each experimental group. LRRK2 and eGFP constructs were combined in a molar ratio of 10:1, respectively, and transfected by using of Lipofectamine 2000 (Invitrogen) at DIV (day in vitro) 14 into rat primary cortical neuronal cultures. Compounds (0.5 μM) were administrated at the time of transfection and continued until toxicity assessments. On DIV 16, images were collected on a Zeiss Automatic stage with Axiovision 6.0. (a) Low magnified photomicrographs; (b and c) High magnified photomicrographs. Scale bar=50 μm (a) and 10 μm (b and c);
# Primary cortical neuronal cultures were prepared from gestational day 15 fetal rats as previously described. Gonzalez-Zulueta, M., et al. Manganese superoxide dismutase protects nNOS neurons from NMDA and nitric oxide-mediated neurotoxicity. J Neurosci 18, 2040-2055 (1998). All procedures used in this study were approved by the Johns Hopkins Medical Institute Animal Care Committee. Cell viability assays and DNA fragmentation (TUNEL assay) were performed as previously described. Smith, W. W., et al. Kinase activity of mutant LRRK2 mediates neuronal toxicity. Nat Neurosci 9, 1231-1233 (2006); West, A. B., et al. Parkinson's disease-associated mutations in LRRK2 link enhanced GTP-binding and kinase activities to neuronal toxicity. Hum Mol Genet 16, 223-232 (2007). The cortex was dissected, incubated for 15 min in 0.027% trypsin, and then transferred to modified Eagle's medium (MEM)/10% horse serum/10% fetal bovine serum/2 mM glutamine followed by trituration. Dissociated cells were plated at a density of 3-4×10^5 cells per well in polyornithine-coated plates. After 4 days the cells were treated with 10 μg of 5-fluoro-2′-deoxyuridine to prevent proliferation of nonneuronal cells. Cells were maintained in MEM/5% horse serum/2 mM glutamine in 8% CO2 incubator. The medium was changed twice weekly. For assessment of LRRK2-mediated neuronal injury, LRRK2 and eGFP constructs were combined in a molar ratio of 10:1, respectively, and transfected into neurons with Lipofectamine 2000 (Invitrogen) at DIV (day in vitro) 14. On DIV 16, images were collected on a Zeiss Automatic stage with Axiovision 6.0. Viable neurons were defined as having at least one smooth extension (neurite) with twice the length of the cell body. The percentage of eGFP-positive injured neurons in each experimental group relative to those neurons transfected with eGFP was calculated.
# [4] = target: T3, LRRK1 WT (Homo sapiens, UniProt Q38SD2); assay: In vitro kinase assay: LRRK1 autophosphorylation; type: biochemical
# T3 sequence (Q38SD2 whole entry): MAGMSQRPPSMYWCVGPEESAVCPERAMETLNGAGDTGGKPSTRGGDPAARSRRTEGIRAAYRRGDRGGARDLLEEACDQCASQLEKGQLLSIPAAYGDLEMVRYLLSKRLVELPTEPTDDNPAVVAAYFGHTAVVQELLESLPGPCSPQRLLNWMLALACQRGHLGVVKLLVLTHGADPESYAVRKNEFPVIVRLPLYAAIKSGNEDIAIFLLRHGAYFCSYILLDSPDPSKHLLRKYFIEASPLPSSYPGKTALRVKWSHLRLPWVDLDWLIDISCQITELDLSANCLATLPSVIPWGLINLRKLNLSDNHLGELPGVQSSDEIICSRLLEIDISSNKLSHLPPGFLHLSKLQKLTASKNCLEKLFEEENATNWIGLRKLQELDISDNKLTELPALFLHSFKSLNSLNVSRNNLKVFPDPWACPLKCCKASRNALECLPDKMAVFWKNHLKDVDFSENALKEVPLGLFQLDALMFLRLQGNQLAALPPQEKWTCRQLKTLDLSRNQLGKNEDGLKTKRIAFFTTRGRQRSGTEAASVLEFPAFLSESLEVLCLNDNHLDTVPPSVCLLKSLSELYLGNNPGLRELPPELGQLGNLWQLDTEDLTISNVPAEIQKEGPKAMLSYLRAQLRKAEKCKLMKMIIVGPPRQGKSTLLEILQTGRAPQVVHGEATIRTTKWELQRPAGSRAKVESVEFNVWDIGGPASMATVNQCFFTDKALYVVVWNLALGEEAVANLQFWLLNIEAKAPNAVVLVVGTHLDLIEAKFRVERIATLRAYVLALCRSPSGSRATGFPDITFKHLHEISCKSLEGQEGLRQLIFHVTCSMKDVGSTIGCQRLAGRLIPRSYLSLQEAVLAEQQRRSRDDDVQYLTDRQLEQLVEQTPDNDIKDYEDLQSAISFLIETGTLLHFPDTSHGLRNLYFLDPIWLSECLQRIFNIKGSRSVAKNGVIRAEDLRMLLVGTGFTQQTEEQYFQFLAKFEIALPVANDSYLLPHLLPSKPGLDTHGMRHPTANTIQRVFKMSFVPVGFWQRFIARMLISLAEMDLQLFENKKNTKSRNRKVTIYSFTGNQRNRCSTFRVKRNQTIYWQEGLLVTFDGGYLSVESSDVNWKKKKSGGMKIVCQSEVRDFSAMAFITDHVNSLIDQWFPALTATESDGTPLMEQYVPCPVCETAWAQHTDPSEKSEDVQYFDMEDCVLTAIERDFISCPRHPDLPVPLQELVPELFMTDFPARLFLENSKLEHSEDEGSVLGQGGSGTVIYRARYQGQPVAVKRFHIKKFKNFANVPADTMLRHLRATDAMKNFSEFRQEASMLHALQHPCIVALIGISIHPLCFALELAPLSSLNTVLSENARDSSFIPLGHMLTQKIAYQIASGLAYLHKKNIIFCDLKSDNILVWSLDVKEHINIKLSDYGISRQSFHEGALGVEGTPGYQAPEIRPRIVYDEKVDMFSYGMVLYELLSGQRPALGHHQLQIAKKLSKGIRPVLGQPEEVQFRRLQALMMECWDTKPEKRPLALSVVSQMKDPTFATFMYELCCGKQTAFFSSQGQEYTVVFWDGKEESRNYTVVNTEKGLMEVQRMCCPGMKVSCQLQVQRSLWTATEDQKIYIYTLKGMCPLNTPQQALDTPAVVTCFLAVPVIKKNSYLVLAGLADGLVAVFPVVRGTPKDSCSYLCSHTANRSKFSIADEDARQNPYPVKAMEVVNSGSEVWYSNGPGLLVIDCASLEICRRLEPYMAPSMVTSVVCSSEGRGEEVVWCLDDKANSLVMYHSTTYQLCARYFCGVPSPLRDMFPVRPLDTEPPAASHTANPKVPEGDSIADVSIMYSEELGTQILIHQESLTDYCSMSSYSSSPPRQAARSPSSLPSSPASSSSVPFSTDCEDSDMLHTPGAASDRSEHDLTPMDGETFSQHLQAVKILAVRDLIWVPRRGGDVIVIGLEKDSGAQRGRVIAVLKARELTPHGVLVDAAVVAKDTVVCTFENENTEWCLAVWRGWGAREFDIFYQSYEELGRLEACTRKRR
# [5] = target: T2, LRRK2 G2019S; assay: In vitro kinase assay: G2019S LRRK2 autophosphorylation; type: biochemical; conditions: dose-response
# Procedure: as §1, §2, §3, §4
# [6] = from literature; cited from earlier work
# [7] = target: T1, LRRK2 WT; assay: In vitro kinase assay: LRRK2 autophosphorylation; type: biochemical; conditions: dose-response
# [8] = target: T3, LRRK1 WT; assay: In vitro kinase assay: LRRK1-mediated MBP phosphorylation; type: biochemical
# [9] = target: G2019S LRRK2 (Homo sapiens, UniProt Q5S007, G2019S); assay: In vitro kinase assay: LRRK2-mediated phosphorylation of 4E-BP1; type: biochemical
# Chain of G2019S LRRK2 (Q5S007 whole entry G2019S): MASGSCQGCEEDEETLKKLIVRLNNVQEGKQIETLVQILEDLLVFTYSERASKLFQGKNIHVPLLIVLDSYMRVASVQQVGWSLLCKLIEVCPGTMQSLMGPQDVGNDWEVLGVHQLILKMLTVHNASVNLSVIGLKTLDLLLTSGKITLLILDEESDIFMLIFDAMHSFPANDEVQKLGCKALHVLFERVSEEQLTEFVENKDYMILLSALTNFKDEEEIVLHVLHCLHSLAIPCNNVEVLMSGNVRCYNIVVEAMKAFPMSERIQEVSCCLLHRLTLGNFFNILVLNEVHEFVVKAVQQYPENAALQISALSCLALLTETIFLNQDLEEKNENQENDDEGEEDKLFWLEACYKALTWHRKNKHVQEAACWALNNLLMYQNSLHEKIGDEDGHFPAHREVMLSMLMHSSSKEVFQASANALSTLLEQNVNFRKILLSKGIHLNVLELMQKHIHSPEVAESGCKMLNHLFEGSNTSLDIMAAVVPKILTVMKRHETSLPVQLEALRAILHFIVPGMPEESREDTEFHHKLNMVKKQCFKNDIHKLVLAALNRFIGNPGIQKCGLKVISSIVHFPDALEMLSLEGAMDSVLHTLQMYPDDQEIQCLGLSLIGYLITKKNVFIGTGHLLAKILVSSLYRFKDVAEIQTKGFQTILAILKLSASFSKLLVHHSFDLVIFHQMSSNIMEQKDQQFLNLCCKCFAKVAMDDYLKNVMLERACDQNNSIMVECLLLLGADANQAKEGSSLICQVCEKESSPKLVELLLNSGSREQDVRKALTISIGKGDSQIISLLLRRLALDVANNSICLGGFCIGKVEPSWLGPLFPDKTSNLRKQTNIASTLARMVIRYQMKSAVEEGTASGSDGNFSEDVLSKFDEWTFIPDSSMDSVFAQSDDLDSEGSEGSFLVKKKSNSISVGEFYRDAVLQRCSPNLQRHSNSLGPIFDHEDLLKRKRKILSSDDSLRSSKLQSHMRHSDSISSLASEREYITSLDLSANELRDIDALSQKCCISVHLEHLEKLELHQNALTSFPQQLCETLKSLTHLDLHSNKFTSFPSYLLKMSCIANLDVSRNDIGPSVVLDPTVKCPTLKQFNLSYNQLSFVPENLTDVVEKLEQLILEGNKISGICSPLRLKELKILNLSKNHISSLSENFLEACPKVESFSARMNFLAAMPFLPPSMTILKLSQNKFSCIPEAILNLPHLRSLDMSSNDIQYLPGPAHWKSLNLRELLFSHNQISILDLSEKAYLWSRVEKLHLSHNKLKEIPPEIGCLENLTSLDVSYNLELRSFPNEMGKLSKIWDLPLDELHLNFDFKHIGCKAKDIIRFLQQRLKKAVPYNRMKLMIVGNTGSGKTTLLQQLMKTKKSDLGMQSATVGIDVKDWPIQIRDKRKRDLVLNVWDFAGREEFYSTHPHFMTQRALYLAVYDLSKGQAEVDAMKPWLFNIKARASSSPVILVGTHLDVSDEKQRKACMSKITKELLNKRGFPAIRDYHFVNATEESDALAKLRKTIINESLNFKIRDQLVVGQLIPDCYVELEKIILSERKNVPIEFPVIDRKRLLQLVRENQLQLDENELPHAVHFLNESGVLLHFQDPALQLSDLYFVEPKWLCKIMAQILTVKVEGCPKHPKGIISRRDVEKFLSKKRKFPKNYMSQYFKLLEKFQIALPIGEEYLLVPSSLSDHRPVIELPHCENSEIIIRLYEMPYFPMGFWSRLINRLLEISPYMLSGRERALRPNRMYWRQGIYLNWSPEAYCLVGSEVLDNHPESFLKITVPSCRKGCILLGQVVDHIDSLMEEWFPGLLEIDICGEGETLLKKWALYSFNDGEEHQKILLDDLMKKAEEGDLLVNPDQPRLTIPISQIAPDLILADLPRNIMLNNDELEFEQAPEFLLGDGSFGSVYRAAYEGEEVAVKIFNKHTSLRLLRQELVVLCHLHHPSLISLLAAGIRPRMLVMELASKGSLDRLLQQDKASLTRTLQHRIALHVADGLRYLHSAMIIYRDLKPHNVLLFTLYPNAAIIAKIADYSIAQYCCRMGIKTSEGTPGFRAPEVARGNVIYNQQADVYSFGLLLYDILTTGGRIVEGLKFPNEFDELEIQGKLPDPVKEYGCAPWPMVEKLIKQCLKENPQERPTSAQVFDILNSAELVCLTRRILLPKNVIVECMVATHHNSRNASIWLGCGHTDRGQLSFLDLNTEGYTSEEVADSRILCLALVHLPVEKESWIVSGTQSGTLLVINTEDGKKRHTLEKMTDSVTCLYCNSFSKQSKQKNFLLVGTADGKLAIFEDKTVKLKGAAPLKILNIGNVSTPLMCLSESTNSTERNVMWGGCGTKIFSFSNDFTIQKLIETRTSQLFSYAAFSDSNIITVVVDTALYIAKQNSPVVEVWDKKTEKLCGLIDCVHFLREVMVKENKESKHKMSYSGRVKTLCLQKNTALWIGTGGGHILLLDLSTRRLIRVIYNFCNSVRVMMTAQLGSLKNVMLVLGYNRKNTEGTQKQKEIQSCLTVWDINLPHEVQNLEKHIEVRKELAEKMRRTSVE
# Procedure: The GST-4E-BP1 expressing vector was generated using the Invitrogen Gateway LR Clonase System. Briefly, an entry clone containing the 4E-BP1 sequence was reacted with the destination vector, pDEST-15 in the presence of the LR clonase mixture. After the clonase reaction, the mixture was transformed into One Shot BL21 chemically competent E. coli. The transformed cells were grown on ampicillin containing LB agar plate for one day at 37° C. Colonies containing GST-4E-BP1 were isolated. For protein induction, 100 μM IPTG was added to 100 mL culture and incubated for 3 h at 30° C. After IPTG incubation, cells were collected by centrifugation at 3,000×g for 15 min. The pellet was lysed with sonication in the presence of lysis butter containing 0.5% TX-100, 50 mM Tris-HCl (pH 8.0), 100 mM NaCl, 0.5 mM EGTA, 5 mM MgCl2, 2 mM DTT, and complete protease inhibitors. The lysate was centrifugated at 15,000×g for 15 min and the supernatant was incubated with GSH-sepharose beads for 2 h at 4° C. After incubation, the beads were washed with PBS containing an additional 150 mM NaCl and 0.1% TX-100 three times. The protein was eluted with elution buffer containing Hepes (pH 8.0), 150 mM NaCl, 30% glycerol, and 30 mM glutathione. The eluted proteins were stored at −80° C.
# The in vitro kinase assay was performed as previously described. West, A. B. et al. Parkinson's disease-associated mutations in leucine-rich repeat kinase 2 augment kinase activity. Proc Natl Acad Sci USA 102, 16842-16847 (2005). Recombinant LRRK2 and MBP or CST-4E-BP1 were combined before the kinase reaction. LRRK2 autophosphorylation is LRRK2 itself phosphorylation and MBP or GST-4E-BP1 phosphorylation is induced by LRRK2. After the kinase reaction, combined LRRK2 and MBP or GST-4E-BP1 were loaded on SDSPAGE and phosphorylated LRRK2 and MBP or GST-4E-BP1 could be detected separately an a single gel. Recombinant proteins and inhibitors were incubated at 30° C. in kinase assay buffer containing 20 mM Hepes (pH 7.4), 5 mM EGTA, and 20 mM β-glycerol phosphate. 0.5 μg MBP (Upstate) or 0.5 μg GST-4B-BP1, 50 μM ATP (Sigma), 20 mM MgCl2, and 1 μCi [γ-32P] ATP (PerkinElmer) was added after 5 min. The reaction was performed at 30° C. to reduce non-specific 32P incorporation for 15 min and terminated by the addition of 5×Laemmili sample buffer. The reactions were then heated at 70° C. for 10 min and resolved by 12% SDS-PAGE. Gels were stained by coomassie brilliant blue after fixation with 10% acetic acid and 40% methanol and then exposed to a Phosphoimager. Data were analyzed by ImageQuant 6.0 software.
# [10] = test system: C. elegans expressing LRRK2 G2019S in DA neurons; assay: Transgenic nematode model of LRRK2 G2019S-induced DA neurodegeneration; type: in vivo, Caenorhabditis elegans
# Procedure: Nematodes were maintained following the standard procedures. Brenner, S., 771 GENETICS 71-94 (1974). Isogenic worm strains expressing LRRK2, G2019S, UAXX [baInlX; Pdat-1::LRRK2 G2019S, Pdat-1::gfp] were generated via microinjection, integrated into the genome and out-crossed three times. Age-synchronized worms were obtained by treating gravid adults with 2% sodium hypochlorite and 0.5M NaOH to isolate embryos. Lewis, J. A., 48 METHODS CELL BIOL. 3-29 (1995). These embryos were treated with indicated concentrations of LRRK2 kinase inhibitors, which were dissolved in 1% DSMO, for 24 h. at 20° C. with gentle shaking. The worms were then washed and transferred into NGM plates seeded with OP50 bacteria, and incubated as 20° C. The six anterior DA neurons (4 CEP and 2 ADE neurons) of 30 animals/trial were examined for neurodegeneration when the animals were 7 days old. A total of 90 animals for each treatment were analyzed (3 trials of 30 animals/trial). […] See Hamamichi et al., 105(2) PROC. NATL. ACAD. SCI. USA 728-33 (2008); and Cao et al, 25 J. NEUROSCI. 3801-12 (2005). For each trial, 30 worms were transferred into a 2% agarose pad, immobilized with 2 mM levamisole, and analyzed using Nikon Eclipse E800 epifluorescence microscope equipped with Endow GFP HYQ filter cube (Chrom Technology, Rockingham, Vt.). Images were captured with a Cool Snap CCD camera (Photometrics, Tucson, Ariz.) driven by MetaMorph software (Universal Imaging, West Chester, Pa.).
# To determine whether the LRRK2 kinase inhibitors protect against LRRK2-induced neurodegeneration in vivo, the LRRK2 kinase inhibitors were tested in the C. elegans model of LRRK2 G2019S-induced neurodegeneration described above. The DA transporter (dat-1) was used to direct expression of LRRK2 G2019S in DA neurons.
# T1 sequence (Q5S007 whole entry): as the sequence (Q5S007 whole entry G2019S) above, with S2019G counted along it
# T2 sequence (Q5S007 whole entry G2019S): as the sequence (Q5S007 whole entry G2019S) above
SMILES,effect on WT LRRK2 MBP phosphorylation [1],effect on G2019S LRRK2 MBP phosphorylation [2],G2019S LRRK2 toxicity [3],effect on LRRK1 autophosphorylation [4],effect on G2019S LRRK2 autophosphorylation [5],crossing of the blood-brain barrier [6],effect on WT LRRK2 autophosphorylation [7],effect on LRRK1 MBP phosphorylation [8],LRRK2-mediated phosphorylation of 4E-BP1 [9],"worms with wild-type DA neurons (4 CEP and 2 ADE) ([10]; 25 μM, 7-day-old worms, n=90, 48% with 1% DMSO)",rescue of DA neurodegeneration ([10]; 7 day-old worms),"IC50 ([8]; Table 3, mean of three experiments)"
"O=C1Nc2ccccc2/C1=C1/Nc2ccccc2C1=O [Inhibitor 69, Indirubin]",no effect,no effect,failed to inhibit,no effect,no effect,known to cross the blood-brain barrier,no effect,no effect,did not inhibit,,,
CNC(=O)c1cc(Oc2ccc(NC(=O)Nc3ccc(Cl)c(C(F)(F)F)c3)cc2)ccn1 [Sorafenib],,,completely protected,minimal to no effect,,,,minimal to no effect,,62%,protect worms from neurodegeneration,13.8 µM

# From patent US20150018301A1, “LRRK-2-Mediated Neuronal Toxicity” (THE JOHNS HOPKINS UNIVERSITY, priority 2009, published 2015)
